Assay results published in the NIST ThermoML archive (doi:10.1016/j.jct.2016.08.010).

How the values were obtained:
[1] = xn = mol fraction of the nth substance listed; conditions: 100 kPa, Liquid; for speed of sound: Frequency=3 MHz, Sing-around technique in a fixed-path interferometer; for mass density: Vibrating tube method
[2] = excess molar enthalpy (molar enthalpy of mixing); xn = mol fraction of the nth substance listed; conditions: 298.15 K, 100 kPa, Liquid, Power-compensation calorimetry

CCCCn1cc[n+](C)c1C.F[B-](F)(F)F [1-butyl-2,3-dimethylimidazolium tetrafluoroborate] + CCn1cc[n+](C)c1.F[B-](F)(F)F
[1]
Conditions | mass density, 293.15 K [kg/m3] | mass density, 298.15 K [kg/m3] | mass density, 303.15 K [kg/m3] | mass density, 308.15 K [kg/m3] | speed of sound, 293.15 K [m/s] | speed of sound, 298.15 K [m/s] | speed of sound, 303.15 K [m/s] | speed of sound, 308.15 K [m/s]
x1 = 0.0952 | 1270.9 | 1267.3 | 1264.1 | 1260.5 | 1636.2 | 1624.1 | 1611.9 | 1600.4
x1 = 0.1386 | 1265.5 | 1262.1 | 1259 | 1255.6 | 1638.2 | 1626 | 1613.7 | 1602.1
x1 = 0.1754 | 1261.2 | 1257.9 | 1255 | 1251.7 | 1639.8 | 1627.4 | 1615.1 | 1603.4
x1 = 0.2361 | 1254.5 | 1251.5 | 1248.7 | 1245.7 | 1642.2 | 1629.6 | 1617.2 | 1605.3
x1 = 0.2819 | 1249.8 | 1247 | 1244.3 | 1241.4 | 1643.8 | 1631.1 | 1618.5 | 1606.6
x1 = 0.3347 | 1244.7 | 1242.1 | 1239.5 | 1236.7 | 1645.4 | 1632.5 | 1619.9 | 1607.9
x1 = 0.3722 | 1241.3 | 1238.8 | 1236.3 | 1233.6 | 1646.5 | 1633.5 | 1620.8 | 1608.7
x1 = 0.4192 | 1237.2 | 1234.9 | 1232.4 | 1229.9 | 1647.7 | 1634.6 | 1621.8 | 1609.7
x1 = 0.4451 | 1235.1 | 1232.8 | 1230.4 | 1227.9 | 1648.3 | 1635.1 | 1622.4 | 1610.2
x1 = 0.4807 | 1232.2 | 1230 | 1227.7 | 1225.2 | 1649.1 | 1635.8 | 1623 | 1610.8
x1 = 0.5327 | 1228.2 | 1226.1 | 1223.8 | 1221.4 | 1650.2 | 1636.8 | 1623.9 | 1611.7
x1 = 0.5785 | 1224.8 | 1222.8 | 1220.5 | 1218.2 | 1651 | 1637.6 | 1624.7 | 1612.4
x1 = 0.6364 | 1220.6 | 1218.7 | 1216.4 | 1214.2 | 1652.1 | 1638.5 | 1625.6 | 1613.2
x1 = 0.6729 | 1218 | 1216.1 | 1213.9 | 1211.7 | 1652.7 | 1639.1 | 1626.1 | 1613.7
x1 = 0.7342 | 1213.7 | 1211.8 | 1209.7 | 1207.6 | 1653.8 | 1640.1 | 1627.1 | 1614.6
x1 = 0.7738 | 1210.9 | 1209 | 1206.9 | 1204.9 | 1654.5 | 1640.8 | 1627.7 | 1615.2
x1 = 0.8254 | 1207.2 | 1205.4 | 1203.2 | 1201.3 | 1655.5 | 1641.7 | 1628.6 | 1616.1
x1 = 0.8739 | 1203.6 | 1201.8 | 1199.7 | 1197.8 | 1656.5 | 1642.7 | 1629.5 | 1616.9
x1 = 1 | 1193.5 | 1191.8 | 1189.7 | 1187.9 | 1659.7 | 1645.7 | 1632.5 | 1619.8

[2]
Conditions | excess molar enthalpy [kcal/mol]
x1 = 0.0907 | -0.0636
x1 = 0.1357 | -0.0796
x1 = 0.1849 | -0.088
x1 = 0.2377 | -0.0856
x1 = 0.2839 | -0.0762
x1 = 0.3341 | -0.0593
x1 = 0.3729 | -0.0437
x1 = 0.4351 | -0.0139
x1 = 0.4972 | 0.0184
x1 = 0.5483 | 0.0452
x1 = 0.5967 | 0.0684
x1 = 0.6417 | 0.0884
x1 = 0.6978 | 0.105
x1 = 0.7424 | 0.114
x1 = 0.7909 | 0.117
x1 = 0.8345 | 0.109
x1 = 0.8758 | 0.0958
x1 = 0.9035 | 0.0829

CCn1cc[n+](C)c1.F[B-](F)(F)F [1-ethyl-3-methylimidazolium tetrafluoroborate] + CCCCn1cc[n+](C)c1.F[B-](F)(F)F
[1]
Conditions | mass density, 293.15 K [kg/m3] | mass density, 298.15 K [kg/m3] | mass density, 303.15 K [kg/m3] | mass density, 308.15 K [kg/m3] | speed of sound, 293.15 K [m/s] | speed of sound, 298.15 K [m/s] | speed of sound, 303.15 K [m/s] | speed of sound, 308.15 K [m/s]
x2 = 0 | 1283.9 | 1279.9 | 1276.3 | 1272.1 | 1631.1 | 1619.2 | 1607.4 | 1596.2
x2 = 0.0728 | 1274.4 | 1270.8 | 1267.5 | 1263.8 | 1628.1 | 1616 | 1604 | 1592.6
x2 = 0.1143 | 1269.1 | 1265.7 | 1262.6 | 1259.1 | 1626.4 | 1614.2 | 1602.2 | 1590.6
x2 = 0.148 | 1264.9 | 1261.6 | 1258.7 | 1255.3 | 1625 | 1612.7 | 1600.7 | 1589.1
x2 = 0.1737 | 1261.8 | 1258.6 | 1255.7 | 1252.4 | 1624 | 1611.6 | 1599.5 | 1587.9
x2 = 0.2204 | 1256.4 | 1253.2 | 1250.5 | 1247.4 | 1622 | 1609.6 | 1597.5 | 1585.7
x2 = 0.2684 | 1251.1 | 1248 | 1245.3 | 1242.3 | 1620 | 1607.5 | 1595.3 | 1583.5
x2 = 0.3155 | 1246.2 | 1243.1 | 1240.5 | 1237.6 | 1618 | 1605.4 | 1593.3 | 1581.3
x2 = 0.3619 | 1241.6 | 1238.6 | 1236 | 1233.2 | 1616 | 1603.3 | 1591.2 | 1579.1
x2 = 0.4167 | 1236.6 | 1233.6 | 1231.1 | 1228.3 | 1613.6 | 1600.8 | 1588.7 | 1576.6
x2 = 0.4759 | 1231.8 | 1228.7 | 1226.1 | 1223.4 | 1610.8 | 1598 | 1585.9 | 1573.7
x2 = 0.5282 | 1227.9 | 1224.7 | 1222.2 | 1219.4 | 1608.3 | 1595.5 | 1583.3 | 1571.1
x2 = 0.5742 | 1224.7 | 1221.5 | 1218.9 | 1216.1 | 1605.9 | 1593.1 | 1581 | 1568.8
x2 = 0.6356 | 1220.9 | 1217.6 | 1214.9 | 1212.1 | 1602.7 | 1589.8 | 1577.7 | 1565.6
x2 = 0.6835 | 1218.1 | 1214.8 | 1212.1 | 1209.1 | 1600 | 1587.1 | 1575.1 | 1563
x2 = 0.7381 | 1215.3 | 1211.8 | 1209 | 1206 | 1596.7 | 1583.9 | 1572 | 1559.8
x2 = 0.7892 | 1212.8 | 1209.2 | 1206.3 | 1203.2 | 1593.5 | 1580.7 | 1568.8 | 1556.8
x2 = 0.8364 | 1210.6 | 1206.9 | 1203.9 | 1200.6 | 1590.4 | 1577.6 | 1565.8 | 1553.8
x2 = 0.8932 | 1208 | 1204.2 | 1201 | 1197.6 | 1586.4 | 1573.7 | 1562 | 1550

[2]
Conditions | excess molar enthalpy [kcal/mol]
x2 = 0.0714 | 0.00215
x2 = 0.1234 | 0.00387
x2 = 0.1781 | 0.00574
x2 = 0.2396 | 0.00786
x2 = 0.2944 | 0.00946
x2 = 0.3468 | 0.0108
x2 = 0.3972 | 0.0117
x2 = 0.4428 | 0.0123
x2 = 0.4859 | 0.0126
x2 = 0.5374 | 0.0126
x2 = 0.5884 | 0.0122
x2 = 0.6291 | 0.0117
x2 = 0.6724 | 0.0109
x2 = 0.7172 | 0.00975
x2 = 0.7639 | 0.00839
x2 = 0.8109 | 0.00684
x2 = 0.8642 | 0.00485
x2 = 0.9077 | 0.00327
